Reference: patent US20190358247A1 (The Medical College of Wisconsin, Inc., priority 2016, published 2019)

What was measured:
[1] = tested on: MiaPaCa-2 cells; assay: Clonogenic (colony formation) assay; type: cell-based, human
Procedure: Clonogenic assay. […] The plates were kept within the incubator and media changed every 3-4 days until the control cells formed sufficiently large clones. The cell survival fractions were calculated as previously described.
MiaPaCa-2 cells were treated with a range of concentrations as shown (FIG. 10C), and the number of colonies formed were counted.

[2] = tested on: MiaPaCa-2 cells; assay: Oxygen consumption rate in intact cells, Seahorse XF96; type: cell-based, human; settings: for effect on OCR: immediate
Procedure: (§1) Respiratory enzyme activity in intact and permeabilized cells. The mitochondrial function in intact and permeabilized pancreatic cancer cells was measured using a Seahorse XF96 Extracellular Flux Analyzer (Seahorse Bioscience, North Billerica, Mass., USA). Unless specified otherwise, assays in intact cells were performed as previously described. Measurement of mitochondrial respiratory complexes in permeabilized cells was performed according to the manufacturer's instructions (Seahorse Bioscience). Briefly, intact cells were permeabilized using 1 nM Plasma Membrane Permeabilizer (PMP, Seahorse Bioscience) immediately before oxygen consumption rate (OCR) measurement by XF96. The oxygen consumption derived from mitochondrial complex I or complex II activity was measured by providing different substrates to mitochondria, e.g., pyruvate/malate for complex I and succinate for complex II activity. Rotenone, malonate and antimycin A were used as specific inhibitors of mitochondrial complex I, II and III activities, respectively.
Effects of Met and Mito-Met analogs on mitochondrial bioenergetics in MiaPaCa-2 cells. The oxygen consumption rate (OCR) and the extracellular acidification rate (ECAR) were measured as a readout of mitochondrial function and glycolysis using a Seahorse Bioscience XF96 extracellular flux analyzer. We compared the immediate OCR changes in response to different concentrations (e.g., IC50 or higher values determined by clonogenic assay) of Met, Mito-Met2, Mito-Met6, Mito-Met10, and phenformin (FIG. 13A).
Next we monitored the mitochondrial OCR changes in MiaPaCa-2 cells after 24 h treatment with Met, Mito-Met analogs, and phenformin followed by a washout of the treatments and return to fresh cell culture media.

[3] = tested on: MiaPaCa-2 cells; assay: Three-dimensional spheroid growth in Matrigel; type: cell-based, human
Procedure: Three-dimensional spheroid cell cultures of PDAC. MiaPaCa-2 cells (5,000) were seeded in 96-well plates containing Matrigel (Corning), used as scaffold. This typical 3D-cell culture system allows spheroids to form within the matrix. […] At days 3, 7, and 14 the wells were observed by bright-field microscopy and images acquired on a Nikon Eclipse Ti inverted microscope (Nikon instrument Inc., NY, USA). Spheroid-forming cells were counted using the Nikon NIS Elements imaging software (Nikon). Data are expressed as mean and SD of number of spheroids.
We tested the antiproliferative effects of Mito-Met and Met in the multicellular spheroid model (FIG. 11A). MiaPaCa-2 cells were cultured for 14 days in Matrigel and treated with Mito-Met10 and Met.

[4] = tested on: AMPK; assay: Immunoblot of phosphorylated AMPK Thr-172 relative to total AMPK, FC1199 cells; type: cell-based; settings: murine FC1199, 1 μM, 30 min
Procedure: In this example, the inventors have shown that the mito-met compounds of the present invention cause an increased AMPK activation in cancer cells. In preliminary experiments (FIG. 4), human MiaPaCa2 and murine FC1199 PDAC cells treated 30 min with 1 μM mito-met (MM), 1 mM Met, or the oligomycin positive control were lysed, and proteins size-separated on SDS-PAGE, transferred to PVDF, and probed with an antibody to phosphorylated AMPK Thr-172.
Immunoblotting. MiaPaCa-2 PDAC cells (1×10^6) were plated to 80% confluency in 60 mm dishes and then serum-starved for 5 hours. […] Cells were stimulated with oligomycin as a positive control. After stimulation, cells were washed twice in cold PBS and lysed using a modified RIPA buffer. Lysates were normalized for protein concentration, size separated using reducing SDS-PAGE, electro-transferred to PVDF membranes (Millipore) and then probed using primary and horseradish peroxidase-conjugated secondary antibodies. Antibodies against total or phosphorylated 5′ AMP-activated protein kinase (AMPK) were purchased from Cell Signaling Technology (Danvers, Mass.) and used at the manufacturer's recommended dilutions. Proteins were visualized by chemiluminescence with auto-exposure and quantified by densitometric analysis using the FluorChem HD2 from Cell Biosciences (Santa Clara, Calif.).
AMPK activation in Mito-Met and Met-treated PDAC cells. […]

[5] = mouse
Procedure: In an initial proof-of-concept experiment, syngeneic KPC cells expressing Firefly luciferase (FC1242-luc) were orthotopically implanted to the pancreas of C57BL/6 mice and tumor growth monitored using bioluminescence imaging (FIG. 15F). Mice orthotopically autografted with FC1242-luc cells were treated daily with 1 mg/kg or 150 mg/kg Met, or 1 mg/kg Mito-Met. […] Serum from these animals was collected, and hepatic and kidney toxicity tested using standard AST, ALT, AP, and BUN assays, respectively.

[6] = molecular target: mitochondrial complex I (Homo sapiens, UniProt O75251+O75306+P03886); assay: Complex I oxygen consumption (pyruvate/malate) in permeabilized cells, Seahorse XF96; type: cell-based; set-up: IC50, complex I oxygen consumption; other: permeabilized MiaPaCa-2, added acutely
Procedure: as §1
The oxygen consumption rate was measured using the permeabilized MiaPaCa-2 cells in MAS buffer supplemented with pyruvate. The use of permeabilized cells avoids differences in cellular uptake of compounds. […] We tested the effect of pretreating cells with Mito-Met10 or Met using the permeabilized model. MiaPaCa-2 cells were treated with Met and Mito-Met10 for 24 h and the oxygen consumption studies were performed in these cells after permeabilization.

mitochondrial complex I, sequence (P03886 whole entry): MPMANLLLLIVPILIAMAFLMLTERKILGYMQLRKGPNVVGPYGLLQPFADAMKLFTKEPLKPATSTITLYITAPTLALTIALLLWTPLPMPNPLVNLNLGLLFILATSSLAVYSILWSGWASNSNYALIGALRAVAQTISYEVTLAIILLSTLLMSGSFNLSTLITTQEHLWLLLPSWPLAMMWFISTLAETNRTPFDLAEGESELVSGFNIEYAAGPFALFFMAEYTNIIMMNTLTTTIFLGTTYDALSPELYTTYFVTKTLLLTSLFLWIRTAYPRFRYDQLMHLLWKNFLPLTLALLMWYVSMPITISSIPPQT
mitochondrial complex I, sequence (O75251 39-213): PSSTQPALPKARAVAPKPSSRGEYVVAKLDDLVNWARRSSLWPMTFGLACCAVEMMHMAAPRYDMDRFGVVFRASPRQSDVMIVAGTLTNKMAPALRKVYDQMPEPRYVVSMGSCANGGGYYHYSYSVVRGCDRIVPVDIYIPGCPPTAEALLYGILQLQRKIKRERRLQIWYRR
mitochondrial complex I, sequence (P03897 whole entry, further chain): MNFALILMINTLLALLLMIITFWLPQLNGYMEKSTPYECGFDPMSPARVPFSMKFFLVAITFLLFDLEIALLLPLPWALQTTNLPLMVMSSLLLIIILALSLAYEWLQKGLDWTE
mitochondrial complex I, sequence (O75306 34-463): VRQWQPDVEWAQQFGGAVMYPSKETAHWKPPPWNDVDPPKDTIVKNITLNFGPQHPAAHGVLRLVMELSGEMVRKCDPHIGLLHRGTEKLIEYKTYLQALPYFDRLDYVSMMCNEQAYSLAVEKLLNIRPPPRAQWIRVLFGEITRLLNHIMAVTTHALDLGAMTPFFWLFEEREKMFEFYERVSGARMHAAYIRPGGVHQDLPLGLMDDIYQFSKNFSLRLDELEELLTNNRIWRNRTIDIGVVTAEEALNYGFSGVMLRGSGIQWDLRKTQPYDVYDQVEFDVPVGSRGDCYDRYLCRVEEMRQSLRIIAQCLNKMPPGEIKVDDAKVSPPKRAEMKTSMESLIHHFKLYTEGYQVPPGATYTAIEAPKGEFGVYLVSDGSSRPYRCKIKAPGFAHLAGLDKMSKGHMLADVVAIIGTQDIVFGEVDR
mitochondrial complex I, sequence (O75489 37-264, further chain): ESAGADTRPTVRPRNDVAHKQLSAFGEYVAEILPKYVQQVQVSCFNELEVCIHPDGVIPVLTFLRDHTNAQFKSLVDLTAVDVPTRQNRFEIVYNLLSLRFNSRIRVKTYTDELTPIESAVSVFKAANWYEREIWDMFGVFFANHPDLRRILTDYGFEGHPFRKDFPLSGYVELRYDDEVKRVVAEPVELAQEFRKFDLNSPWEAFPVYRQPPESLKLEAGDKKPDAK

Br.N=C(N)NC(=N)NCCCCCCCCCC[P+](c1ccccc1)(c1ccccc1)c1ccccc1 [Mito-Met10]
colony formation ([1]; 3 μM, 24 h): Almost no colony formation | IC50 ([1]; read-out: IC50, colony formation / survival fraction, MiaPaCa-2, 24 h treatment): 1100 nM | concentration at which OCR was inhibited ([2]; 24 h treatment, washout): 1 µM | effect on OCR ([2]; 1 μM): did not inhibit OCR | effect on OCR ([2]; ≈10 μM): slight inhibition | fold more effective than Met in inhibiting PDAC proliferation, 2D and 3D cell growth assays [3]: 1,000- to 10,000 fold | PDAC spheroid growth ([3]; 0.5 μM, 14 days): potently inhibited PPAC spheroid growth | increase in active AMPK (phosphorylated relative to total protein) [4]: 1.5-2.5 fold | toxicity in vivo (hepatic and kidney) [5]: neither Met nor the mitochondria-targeted analog Mito-Met elicited toxicity | Kidney BUN ([5]; in vivo, 1 mg/kg): 27 ± 4 mg/dL | Liver ALT ([5]; in vivo, 1 mg/kg): 26 ± 10 IU/L | Liver AST ([5]; in vivo, 1 mg/kg): 89 ± 16 IU/L | concentration at which OCR was inhibited ([6]; permeabilized MiaPaCa-2, added acutely): 10 µM | IC50 ([6]; read-out: IC50, complex I oxygen consumption, permeabilized MiaPaCa-2, compound added acutely (FIG. 20C)): 2000 nM
